PubChem BioAssay (NCI)
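96-well plates; 48 h exposure; 5 concentrations. Endpoints by linear interpolation between flanking doses. Not reached: highest tested concentration assigned. The concentration for 50% growth inhibition is given as GI50. The concentration for full growth arrest is given as TGI.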

Legend:
Test in all cases: NCI anticancer screen, dose series, 48 h; in the data active = GI50 below about 0.43 µM; inactive = the rest
SN12C renal = tested on: SN12C renal
NCI-H522 lung = tested on: NCI-H522 lung
RPMI-8226 leukemia = tested on: RPMI-8226 leukemia
LOX IMVI melanoma = tested on: LOX IMVI melanoma
ACHN renal = tested on: ACHN renal
HOP-62 NSCLC = tested on: HOP-62 NSCLC
SF-268 CNS = tested on: SF-268 CNS
CCRF-CEM leukemia = tested on: CCRF-CEM leukemia
SR leukemia = tested on: SR leukemia
MALME-3M melanoma = tested on: MALME-3M melanoma
NCI-H226 lung = tested on: NCI-H226 lung
T-47D breast = tested on: T-47D breast
SK-MEL-28 melanoma = tested on: SK-MEL-28 melanoma
HL-60(TB) leukemia = tested on: HL-60(TB) leukemia
OVCAR-8 ovarian = tested on: OVCAR-8 ovarian
HCT-15 colon = tested on: HCT-15 colon
HCC-2998 colon = tested on: HCC-2998 colon
TK-10 renal = tested on: TK-10 renal
OVCAR-5 ovarian = tested on: OVCAR-5 ovarian
SF-539 CNS = tested on: SF-539 CNS
M14 melanoma = tested on: M14 melanoma
MDA-MB-435 = tested on: MDA-MB-435
OVCAR-3 ovarian = tested on: OVCAR-3 ovarian
CAKI-1 renal = tested on: CAKI-1 renal
SF-295 CNS = tested on: SF-295 CNS
U251 CNS = tested on: U251 CNS
COLO 205 colon = tested on: COLO 205 colon
SK-MEL-5 melanoma = tested on: SK-MEL-5 melanoma
HT29 colon = tested on: HT29 colon
MCF7 breast = tested on: MCF7 breast
A498 renal = tested on: A498 renal
HCT-116 colon = tested on: HCT-116 colon
HS 578T breast = tested on: HS 578T breast
MOLT-4 leukemia = tested on: MOLT-4 leukemia
SNB-19 CNS = tested on: SNB-19 CNS
UACC-257 melanoma = tested on: UACC-257 melanoma
PC-3 prostate = tested on: PC-3 prostate
SK-MEL-2 melanoma = tested on: SK-MEL-2 melanoma
MDA-MB-231 breast = tested on: MDA-MB-231 breast
NCI-H460 lung = tested on: NCI-H460 lung
NCI/ADR-RES ovarian = tested on: NCI/ADR-RES ovarian
786-0 renal = tested on: 786-0 renal
BT-549 breast = tested on: BT-549 breast
SNB-75 CNS = tested on: SNB-75 CNS
IGROV1 ovarian = tested on: IGROV1 ovarian
DU-145 prostate = tested on: DU-145 prostate
NCI-H23 lung = tested on: NCI-H23 lung
EKVX NSCLC = tested on: EKVX NSCLC
K-562 leukemia = tested on: K-562 leukemia
UACC-62 melanoma = tested on: UACC-62 melanoma
A549 NSCLC = tested on: A549 NSCLC
KM12 colon = tested on: KM12 colon
SK-OV-3 ovarian = tested on: SK-OV-3 ovarian
SW-620 colon = tested on: SW-620 colon
OVCAR-4 ovarian = tested on: OVCAR-4 ovarian
UO-31 renal = tested on: UO-31 renal
RXF 393 renal = tested on: RXF 393 renal

Cc1ccc(Cl)cc1Nc1nc(C(F)(F)F)ccc1C(=O)N1CCN(c2cccc(Cl)c2)CC1
inactive: GI50 (SN12C renal) > 100 µM | GI50 (NCI-H522 lung) 89.7 µM | GI50 (RPMI-8226 leukemia) 33.2 µM | GI50 (LOX IMVI melanoma) > 100 µM | GI50 (ACHN renal) > 100 µM | GI50 (HOP-62 NSCLC) > 100 µM | GI50 (SF-268 CNS) > 100 µM | GI50 (CCRF-CEM leukemia) > 100 µM | GI50 (SR leukemia) 3.06 µM | GI50 (MALME-3M melanoma) > 100 µM | GI50 (NCI-H226 lung) > 100 µM | GI50 (T-47D breast) 37.6 µM | GI50 (SK-MEL-28 melanoma) > 100 µM | GI50 (HL-60(TB) leukemia) 94.4 µM | GI50 (OVCAR-8 ovarian) > 100 µM | GI50 (HCT-15 colon) > 100 µM | GI50 (HCC-2998 colon) 17.8 µM | GI50 (TK-10 renal) > 100 µM | GI50 (OVCAR-5 ovarian) > 100 µM | GI50 (SF-539 CNS) > 100 µM | GI50 (M14 melanoma) > 100 µM | GI50 (MDA-MB-435) > 100 µM | GI50 (OVCAR-3 ovarian) 8.27 µM | GI50 (CAKI-1 renal) 26.4 µM | GI50 (SF-295 CNS) > 100 µM | GI50 (U251 CNS) > 100 µM | GI50 (COLO 205 colon) > 100 µM | GI50 (SK-MEL-5 melanoma) > 100 µM | GI50 (HT29 colon) > 100 µM | GI50 (MCF7 breast) 47.9 µM | GI50 (A498 renal) 65.6 µM | GI50 (HCT-116 colon) 37.9 µM | GI50 (HS 578T breast) 47.9 µM | GI50 (SNB-19 CNS) > 100 µM | GI50 (UACC-257 melanoma) > 100 µM | GI50 (PC-3 prostate) 21.7 µM | GI50 (SK-MEL-2 melanoma) > 100 µM | GI50 (MDA-MB-231 breast) 30.5 µM | GI50 (NCI-H460 lung) 90.1 µM | GI50 (NCI/ADR-RES ovarian) > 100 µM | GI50 (786-0 renal) > 100 µM | GI50 (BT-549 breast) > 100 µM | GI50 (SNB-75 CNS) 73.8 µM | GI50 (IGROV1 ovarian) 39.2 µM | GI50 (DU-145 prostate) > 100 µM | GI50 (NCI-H23 lung) > 100 µM | GI50 (EKVX NSCLC) 86.4 µM | GI50 (K-562 leukemia) > 100 µM | GI50 (UACC-62 melanoma) 69.4 µM | GI50 (A549 NSCLC) > 100 µM | GI50 (KM12 colon) > 100 µM | GI50 (SK-OV-3 ovarian) > 100 µM | GI50 (SW-620 colon) > 100 µM | GI50 (OVCAR-4 ovarian) > 100 µM | GI50 (UO-31 renal) 24.8 µM
> 100 µM: TGI (SN12C renal) | TGI (NCI-H522 lung) | TGI (RPMI-8226 leukemia) | TGI (LOX IMVI melanoma) | TGI (ACHN renal) | TGI (HOP-62 NSCLC) | TGI (SF-268 CNS) | TGI (CCRF-CEM leukemia) | TGI (SR leukemia) | TGI (MALME-3M melanoma) | TGI (NCI-H226 lung) | TGI (T-47D breast) | TGI (SK-MEL-28 melanoma) | TGI (HL-60(TB) leukemia) | TGI (OVCAR-8 ovarian) | TGI (HCT-15 colon) | TGI (HCC-2998 colon) | TGI (TK-10 renal) | TGI (OVCAR-5 ovarian) | TGI (SF-539 CNS) | TGI (M14 melanoma) | TGI (MDA-MB-435) | TGI (OVCAR-3 ovarian) | TGI (CAKI-1 renal) | TGI (SF-295 CNS) | TGI (U251 CNS) | TGI (COLO 205 colon) | TGI (SK-MEL-5 melanoma) | TGI (HT29 colon) | TGI (MCF7 breast) | TGI (A498 renal) | TGI (HCT-116 colon) | TGI (HS 578T breast) | TGI (MOLT-4 leukemia) | TGI (SNB-19 CNS) | TGI (UACC-257 melanoma) | TGI (PC-3 prostate) | TGI (SK-MEL-2 melanoma) | TGI (MDA-MB-231 breast) | TGI (NCI-H460 lung) | TGI (NCI/ADR-RES ovarian) | TGI (786-0 renal) | TGI (BT-549 breast) | TGI (SNB-75 CNS) | TGI (IGROV1 ovarian) | TGI (DU-145 prostate) | TGI (NCI-H23 lung) | TGI (EKVX NSCLC) | TGI (K-562 leukemia) | TGI (UACC-62 melanoma) | TGI (A549 NSCLC) | TGI (KM12 colon) | TGI (SK-OV-3 ovarian) | TGI (SW-620 colon) | TGI (OVCAR-4 ovarian) | TGI (UO-31 renal)

CCOc1ccc2nc(S/C(=C/C=C(C#N)C#N)c3ccc(C)cc3)sc2c1
20.4 µM: TGI (HL-60(TB) leukemia)
28.8 µM: TGI (HCT-15 colon)
57.4 µM: TGI (SK-MEL-5 melanoma)
70.1 µM: TGI (BT-549 breast)
55 µM: TGI (K-562 leukemia)
97.3 µM: TGI (NCI-H23 lung)
8.5 µM: TGI (MOLT-4 leukemia)
7.43 µM: TGI (SR leukemia)
53.6 µM: TGI (HCC-2998 colon)
46.4 µM: TGI (SN12C renal)
59.4 µM: TGI (MDA-MB-435)
31.6 µM: TGI (HCT-116 colon)
54.1 µM: TGI (UACC-62 melanoma)
54.6 µM: TGI (CAKI-1 renal)
60.8 µM: TGI (SF-295 CNS)
57.2 µM: TGI (SF-539 CNS)
46.8 µM: TGI (786-0 renal)
> 100 µM: TGI (HOP-62 NSCLC) | TGI (SF-268 CNS) | TGI (MALME-3M melanoma) | TGI (T-47D breast) | TGI (SK-MEL-28 melanoma) | TGI (OVCAR-8 ovarian) | TGI (OVCAR-5 ovarian) | TGI (M14 melanoma) | TGI (OVCAR-3 ovarian) | TGI (U251 CNS) | TGI (COLO 205 colon) | TGI (HT29 colon) | TGI (A498 renal) | TGI (SNB-19 CNS) | TGI (UACC-257 melanoma) | TGI (PC-3 prostate) | TGI (IGROV1 ovarian) | TGI (DU-145 prostate) | TGI (EKVX NSCLC) | TGI (A549 NSCLC) | TGI (KM12 colon) | TGI (SK-OV-3 ovarian) | TGI (OVCAR-4 ovarian) | TGI (UO-31 renal)
50.7 µM: TGI (NCI/ADR-RES ovarian)
36.9 µM: TGI (ACHN renal)
79.6 µM: TGI (MCF7 breast)
43.4 µM: TGI (MDA-MB-231 breast)
94.6 µM: TGI (TK-10 renal)
42.4 µM: TGI (NCI-H226 lung)
35.8 µM: TGI (SW-620 colon)
88.4 µM: TGI (HS 578T breast)
57.9 µM: TGI (NCI-H460 lung)
49.3 µM: TGI (NCI-H522 lung)
5.52 µM: TGI (CCRF-CEM leukemia)
23.9 µM: TGI (LOX IMVI melanoma)
46.7 µM: TGI (RXF 393 renal)
inactive: GI50 (SN12C renal) 18.1 µM | GI50 (NCI-H522 lung) 20.8 µM | GI50 (LOX IMVI melanoma) 9.87 µM | GI50 (ACHN renal) 18.4 µM | GI50 (HOP-62 NSCLC) 44.9 µM | GI50 (SF-268 CNS) 30 µM | GI50 (CCRF-CEM leukemia) 2.05 µM | GI50 (SR leukemia) 2.92 µM | GI50 (MALME-3M melanoma) 33 µM | GI50 (NCI-H226 lung) 20.3 µM | GI50 (T-47D breast) 42.4 µM | GI50 (SK-MEL-28 melanoma) 31.1 µM | GI50 (HL-60(TB) leukemia) 4.55 µM | GI50 (OVCAR-8 ovarian) 32.8 µM | GI50 (HCT-15 colon) 12.2 µM | GI50 (HCC-2998 colon) 25.1 µM | GI50 (TK-10 renal) 27.2 µM | GI50 (OVCAR-5 ovarian) 57.5 µM | GI50 (SF-539 CNS) 26 µM | GI50 (M14 melanoma) 35.8 µM | GI50 (MDA-MB-435) 20.7 µM | GI50 (OVCAR-3 ovarian) 32.6 µM | GI50 (CAKI-1 renal) 17.1 µM | GI50 (RXF 393 renal) 19.9 µM | GI50 (SF-295 CNS) 22.8 µM | GI50 (U251 CNS) 29.4 µM | GI50 (COLO 205 colon) 25.8 µM | GI50 (SK-MEL-5 melanoma) 22.1 µM | GI50 (HT29 colon) 4.71 µM | GI50 (MCF7 breast) 17.8 µM | GI50 (A498 renal) 42.3 µM | GI50 (HCT-116 colon) 17.3 µM | GI50 (HS 578T breast) 32.2 µM | GI50 (MOLT-4 leukemia) 3.03 µM | GI50 (SNB-19 CNS) > 100 µM | GI50 (UACC-257 melanoma) > 100 µM | GI50 (PC-3 prostate) 33.9 µM | GI50 (MDA-MB-231 breast) 17.8 µM | GI50 (NCI-H460 lung) 22.7 µM | GI50 (NCI/ADR-RES ovarian) 24 µM | GI50 (786-0 renal) 21.9 µM | GI50 (BT-549 breast) 25.6 µM | GI50 (IGROV1 ovarian) 54.5 µM | GI50 (DU-145 prostate) 40.5 µM | GI50 (NCI-H23 lung) 35.6 µM | GI50 (EKVX NSCLC) > 100 µM | GI50 (K-562 leukemia) 5.28 µM | GI50 (UACC-62 melanoma) 22 µM | GI50 (A549 NSCLC) 46.7 µM | GI50 (KM12 colon) 35.9 µM | GI50 (SK-OV-3 ovarian) > 100 µM | GI50 (SW-620 colon) 5.35 µM | GI50 (OVCAR-4 ovarian) 94.4 µM | GI50 (UO-31 renal) 36.2 µM
